From patent US6521655B1, “Substituted imidazoles useful in the treatment of inflammatory diseases” (Ortho-McNeil Pharmaceutical, Inc., priority 1997, dated 2003) come the findings set out here.

Structures are written as SMILES. pIC50: −log10 of the molar value. A value given as a limit tells only on which side of the number the result lay.

Test [1] addresses T1, purified recombinant p38 (Homo sapiens, UniProt Q16539).
T1 construct: 6xHis; made in house; host or cells: E. coli
The experiment in a line: p38 in vitro enzyme assay (33P-ATP, myelin basic protein substrate). The class given is biochemical. Particulars: for pIC50: read-out: p-38 IC50. The protocol:
As discussed previously, agents which inhibit the activity of the enzyme p38, inhibit the production of the inflammatory cytokines TNF-α, and IL-1β. Compounds of the invention were measured for their ability to inhibit the activity of p38 by the following in vitro assay.
A solution (38 μL) of purified recombinant p38 (where the amount of enzyme was determined empirically considering the linear range of the assay and the acceptable signal to noise ratio; 6×His-p38 expressed in E.coli), myelin basic protein substrate (also determined empirically), a buffer of pH 7.5 (Hepes:25 mM, MgCl2:10 mM, MnCl2:10 mM) were added to 92 wells of a 96-well round bottom polypropylene plate. The remaining wells were used for control (“CTRL”) and background (“BKG”). The CTRL was prepared with the enzyme, substrate buffer and 2% DMSO, and the BKG was prepared with substrate buffer and 2% DMSO. A solution (12 μL) of the test compound in DMSO (compounds were diluted to 125 μM in 10% DMSO/H2O and assayed at 25 μM where the final DMSO concentration was 2%) was added to the testing wells. The ATP/^33P-ATP solution (10 μL: containing 50 μM unlabeled ATP and 1 μCi ^33P-ATP) was added to all wells and the completed plates were mixed and incubated at 30° C. for 30 min. Ice-cold 50% TCA/10 mM sodium phosphate (60 μL) were added to each well and the plates were kept on ice for 15 min. The contents of each well were transferred to the wells of a 96-well filterplate (Millipore, MultiScreen-DP) and the filterplate was placed on a vacuum manifold, fitted with a waste collection tray. The wells were washed five times with 10% TCA/10 mM sodium phosphate (200 μL) under vacuum. MicroScint-20 scintillant was added, the plates were sealed using Topseal-S sheets and counted in a Packard TopCount scintillation counter using a ^33P liquid program with color quench correction, where the output is in color quench-corrected cpm. The % inhibition of the test compounds was calculated by the following formula: % inhibition=[1−(sample -BKG)/(CTRL-BKG)]×100.
Although compounds were initially tested at […], if warranted the compounds were tested at 4-fold increments above and below that concentration. In addition, IC50s were calculated for some compounds using the Deltagraph 4-parameter curve fitting program.

Test [2] has as its system TNF-α. The experiment in a line: in vitro whole cell assay, LPS-stimulated PBMC, TNF-α ELISA. The note with it: LPS-stimulated human PBMC. The class given is cell-based. As to the method: Aside from the enzyme assay, many of the compounds of the invention were tested in an in vitro whole cell assay using peripheral blood mononuclear cells (“PBMC”) which were obtained from human blood as follows. Freshly obtained venous blood was anticoagulated with heparin, diluted with an equal volume of phosphate buffered saline (“PBS”) and placed in a sterile tube or other container. Aliquots (30 mL) of this mixture were transferred to centrifuge tubes which were underlaid with Ficoll-Hypaque (15 mL). The prepared tubes were centrifuged at 400×g without braking for 30 min at room temperature. Approximately ½ to ⅔ of the platelet layer above the mononuclear cell band was removed with a pipette. The majority of the mononuclear cell layer was carefully removed using a pipette and these PBMCs were diluted with PBS and spun at 600×g for 15 min. […] A small volume of the suspension was removed for counting on a hemocytometer and the remaining preparation was centrifuged at 200×g for 15 min at room temperature. The recovered pelleted PMBC were resuspended in RPMI/1% FCS to a concentration of 1.67×10^6/mL. To run the assay, the PBMC suspension (180 μL) was transferred to duplicate wells of a 96-well flat-bottom microtiter plate and incubated for 1 h at 37° C. […] A solution (10 μL) of LPS in RPMI/1% FCS (200 ng/mL) was added and the wells were incubated overnight at 37° C. The supernate ([…]) was removed from each well and diluted with RPMI/1% FCS (400 μL). The samples were analyzed for TNF-α using a commercial ELISA kit (Genzyme).
In general terms: ELISA stands for enzyme-linked immunosorbent assay.

In test [3] the test system is IL-1β. The test is described as follows: in vitro IL-1β assay, plastic-adherent cells from PBMC, LPS stimulation, ELISA. Type of test: cell-based. The note with it: Homo sapiens, read-out: inhibition of production of IL-1β, IC50. The protocol: The IL-1β activity of select compounds of the invention was determined by the following in vitro assay. Plastic-adherent cells were prepared from PBMC. Briefly, PBMCs were added to the wells of a 96-well plate as above, incubated for 1 h at 37° C., and the adherent cells prepared by gently resuspending the non-adherent cells with a pipettor, removing and discarding them and gently washing the wells 3 times with 200 μL culture medium. Additional culture medium (180 μL) was added to the wells after the final wash. Compound addition, LPS stimulation, incubation and supernate harvest were as for TNF-α. Supernates were assayed for interleukin-1β using a commercial ELISA (Genzyme).

In test [4] the test system is TNF-α. The experiment in a line: in vivo LPS induced TNF-α production, mice. Particulars: 25 mg/kg, oral, LPS 1 mg/kg i.p. Also on record: species or system Mice (BALB/cJ females). The protocol:
(§1) Thirty minutes after dosing, the animals were injected intraperitoneally with LPS at 1 mg/kg and returned to their cages for 1 h. Animals were anesthetized by CO2, exsanguinated by cardiac puncture and whole blood collected (0.1-0.7 mL). The blood was allowed to clot and serum was transferred to a centrifuge tube. This sample was centrifuged, serum was collected, aliquoted and frozen at −80° C. Samples were tested by commercial ELISAs for TNF-α (Endogen for mouse TNF-α and Biosource for rat TNF-α).

Test [5] relates to TNF-α. The test is described as follows: in vivo LPS induced TNF-α production, rats. Details: species or system rats (Lewis males). Particulars: 25 mg/kg, oral, LPS 1 mg/kg i.p. The protocol: as §1

T1 sequence (Q16539 whole entry): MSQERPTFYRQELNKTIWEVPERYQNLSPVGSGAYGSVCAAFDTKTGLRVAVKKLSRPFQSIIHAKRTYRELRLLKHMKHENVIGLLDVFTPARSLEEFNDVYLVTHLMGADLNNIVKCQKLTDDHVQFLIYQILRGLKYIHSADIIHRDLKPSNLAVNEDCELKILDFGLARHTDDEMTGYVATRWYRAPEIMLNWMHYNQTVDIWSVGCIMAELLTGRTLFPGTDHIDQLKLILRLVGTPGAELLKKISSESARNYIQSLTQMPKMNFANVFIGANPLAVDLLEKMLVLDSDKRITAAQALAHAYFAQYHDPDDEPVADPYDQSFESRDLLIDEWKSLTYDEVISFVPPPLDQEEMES

For the compound `OCCC#Cc1nc(-c2ccc(F)cc2)c(-c2ccncc2)n1CCCc1ccccc1` [Cpd. 4], the negative logarithm of the IC50 (pIC50) – broadly, the negative decadic logarithm of the IC50, by convention in mol/L – in test [1] is 6.19; in test [2], 8.52; in test [3] it was 8.15. In addition, in test [4], the “% Inhibition TNF-α Mice” value is listed as 49.6%. Also, the “% Inhibition TNF-α Rats” value in test [5] was 91%. In the case of `Fc1ccc(-c2[nH]c(/C=C/Cl)nc2-c2ccncc2)cc1` [compound 8], in test [1], the pIC50 is 5.82. Take `C[Si](C)(C)CCOCn1c(C=C(Br)Br)nc(-c2ccncc2)c1-c1ccc(F)cc1` [compound 10]: in test [1] (@ 5 μm), the p-38 % inhibition is given as 16% @ 5 μm.

For the compound `O/N=C/c1nc(-c2ccncc2)c(-c2ccc(F)cc2)[nH]1` [compound 13], the pIC50 in test [2] was 7.35. On the same count and under the same terms, next, `Fc1ccc(-c2nc(C#CCCCCl)n(CCCc3ccccc3)c2-c2ccncc2)cc1` [compound 14]: 8.40; `O=C(Nc1ccccc1)OCCC#Cc1nc(-c2ccc(F)cc2)c(-c2ccncc2)n1CCCc1ccccc1` [compound 15]: 7.42; `Fc1ccc(-c2nc(C#CCCCl)n(CCCc3ccccc3)c2-c2ccncc2)cc1` [compound 16]: 8.22. In test [2], `CN(C)CCC#Cc1nc(-c2ccc(F)cc2)c(-c2ccncc2)n1CCCc1ccccc1` [compound 17] had a negative logarithm of the IC50 (pIC50) of 8.52. `C[Si](C)(C)CCOCn1c(C=C(Br)Br)nc(-c2ccc(F)cc2)c1-c1ccncc1` [compound 18] showed a negative-log IC50 (pIC50) in test [2] of 5.82. In test [2], `OCCCC#Cc1nc(-c2ccc(F)cc2)c(-c2ccncc2)[nH]1` [compound 19] showed a pIC50 of 7.07. The “% Inhibition TNF-α Mice” value in test [4] was determined as 29%. Turning to `C[Si](C)(C)CCOCn1c(C#CCCO)nc(-c2ccncc2)c1-c1ccc(F)cc1` [compound 20], the negative logarithm of the IC50 (pIC50) in test [2] is less than 5.00. On the same count and under the same terms, under `OCCC#Cc1nc(-c2ccc(F)cc2)c(-c2ccncc2)[nH]1` [compound 21] stands 7.10; under `O=C1c2ccccc2C(=O)N1CCCC#Cc1nc(-c2ccc(F)cc2)c(-c2ccncc2)[nH]1` [compound 22], 6.15. As for `OCCCCC#Cc1nc(-c2ccc(F)cc2)c(-c2ccncc2)[nH]1` [compound 24], the negative logarithm of the IC50 (pIC50) in test [2] is 7.00. Moreover, in test [4], the “% Inhibition TNF-α Mice” value was found to be 73%. For `CCCC#Cc1nc(-c2ccncc2)c(-c2ccc(F)cc2)n1COCC[Si](C)(C)C` [compound 26], in that order: less than 5.70 and 0%. Taken in the same sequence, the figures for `CCCC#Cc1nc(-c2ccncc2)c(-c2ccc(F)cc2)[nH]1` [compound 28] were 7.10 and 88%. As to `O=C1c2ccccc2C(=O)N1CCCC#Cc1nc(-c2ccncc2)c(-c2ccc(F)cc2)[nH]1` [compound 29], the negative-log IC50 (pIC50) in test [2] was 6.70. Turning to `C#Cc1nc(-c2ccc(F)cc2)c(-c2ccncc2)[nH]1` [compound 30], the negative-log IC50 (pIC50) in test [2] was 6.82. Same read-out and setting: under `Fc1ccc(-c2nc(C#CBr)[nH]c2-c2ccncc2)cc1` [compound 31] stands 6.60. Still for that read-out and setting: next, `Fc1ccc(-c2nc(C=NOCc3ccccc3)[nH]c2-c2ccncc2)cc1` [compound 32]: 7.10; `O=[N+]([O-])c1ccc(CON=Cc2nc(-c3ccc(F)cc3)c(-c3ccncc3)[nH]2)cc1` [compound 33]: 6.82. The compound `CCCC#Cc1nc(-c2ccc(F)cc2)c(-c2ccncc2)n1CCCc1ccccc1` [compound 34] showed a negative logarithm of the IC50 (pIC50) in test [2] of 8.00. Also, the “% Inhibition TNF-α Mice” value in test [4] is 53%. Take `OCCCC#Cc1nc(-c2ccc(F)cc2)c(-c2ccncc2)n1CCCc1ccccc1` [compound 35]: the p-38 % inhibition in test [1] (@ 20 μm) was 99% @ 20 μm. In test [2], the pIC50 is 8.10. Also, the “% Inhibition TNF-α Mice” value in test [4] is recorded as 68%. For `N#CCCCC#Cc1nc(-c2ccc(F)cc2)c(-c2ccncc2)n1CCCc1ccccc1` [compound 36], the pIC50 is 5.82 in test [1], 8.05 in test [2] and 7.89 in test [3]. In addition, the “% Inhibition TNF-α Mice” value in test [4] is reported as 69.3%. With `O=C1c2ccccc2C(=O)N1CCCn1c(C#CCCO)nc(-c2ccc(F)cc2)c1-c1ccncc1` [compound 37], the pIC50 in test [2] was 6.80.

In test [2], `Fc1ccc(-c2nc(C#CCCCc3ccccc3)n(CCCc3ccccc3)c2-c2ccncc2)cc1` [compound 38] showed a pIC50 of 7.40. On the same count and under the same terms, next, `CCCCSCCCC#Cc1nc(-c2ccc(F)cc2)c(-c2ccncc2)n1CCCc1ccccc1` [compound 39]: 6.70.

In turn, `CCCCS(=O)(=O)CCCC#Cc1nc(-c2ccc(F)cc2)c(-c2ccncc2)n1CCCc1ccccc1` [compound 40] showed a negative-log IC50 (pIC50) in test [2] of 8.19.

For the compound `OCCCCC#Cc1nc(-c2ccc(F)cc2)c(-c2ccncc2)n1CCCc1ccccc1` [compound 43], in test [1] (@ 20 μm), the p-38 % inhibition is on record as 98% @ 20 μm. This compound showed a negative logarithm of the IC50 (pIC50) in test [2] of 8.28. In addition, the “% Inhibition TNF-α Mice” value in test [4] is given as 53%. `Fc1ccc(-c2nc(C=C(Br)Br)[nH]c2-c2ccncc2)cc1` [compound 44]: the p-38 % inhibition in test [1] (@ 20 μm) came to 93% @ 20 μm. In test [2], this compound gave a pIC50 of 6.70.

Take `C[Si](C)(C)CCOCn1c(C#CCCCN2C(=O)CCC2=O)nc(-c2ccc(F)cc2)c1-c1ccncc1` [compound 45]: the pIC50 in test [2] is 6.19. `N#CC=Cc1nc(-c2ccc(F)cc2)c(-c2ccncc2)[nH]1` [compound 46] gave a negative logarithm of the IC50 (pIC50) in test [2] of 6.60. On the same count and under the same terms, under `OCC#Cc1nc(-c2ccc(F)cc2)c(-c2ccncc2)n1CCCc1ccccc1` [compound 47] stands 8.14; under `COCCC#Cc1nc(-c2ccc(F)cc2)c(-c2ccncc2)n1CCCc1ccccc1` [compound 49], 8.52; under `O=C(OCCC#Cc1nc(-c2ccc(F)cc2)c(-c2ccncc2)n1CCCc1ccccc1)c1ccccc1` [compound 50], 8.70. Take `C=CC#Cc1nc(-c2ccc(F)cc2)c(-c2ccncc2)n1CCCc1ccccc1` [compound 51]: the pIC50 in test [2] is 8.26.

Take `CC(=O)OCCC#Cc1nc(-c2ccc(F)cc2)c(-c2ccncc2)n1CCCc1ccccc1` [compound 52]: the pIC50 in test [2] is 8.59.
